Assay results: patent publication US12258327B2, “5-membered heteroaryl-containing aminopyridine compounds as EGFR inhibitors” (YUHAN CORPORATION, priority 2021, dated 2025)
Where two headings read alike, the source gives them in different places.

Assays:
[1] = target: EGFR L858R/T790M/C797S (Homo sapiens, UniProt P00533, C797S/L858R/T790M); assay: Biochemical EGFR kinase assay (Lance Ultra TR-FRET), triple mutant L858R/T790M/C797S
Experimental: (§1) Biochemical EGFR kinase assays were conducted using Lance Ultra time-resolved fluorescence resonance energy transfer (TR-FRET) technology from Perkin-Elmer. Compounds of the invention were initially diluted to 20 mM in 100% DMSO for storage and made into kinase buffer solution to create a compound concentration ranging from 0.003 μM and 10 μM.
(§2) Each kinase reactions were incubated at room temperature for 1 hour and then stopped by the addition of 4 μL of stop solution (10 mM EDTA). The specific Europium-labeled-anti-phosphopeptide antibody (PerkinElmer, AD0069) diluted in LANCE detection buffer was then added to a final concentration of 2 nM. After 60 minutes incubation at room temperature the LANCE signal was measured on an EnVision Multilabel Reader (Perkin-Elmer). Excitation wavelength was set at 320 nm and emission monitored at 615 nm (donor) and 665 nm (acceptor). The IC50 values were determined using GraphPad prism software (GraphPad Software, Inc., San Diego, CA, USA).

[2] = target: EGFR wildtype (WT) (Homo sapiens, UniProt P00533); assay: Biochemical EGFR kinase assay (Lance Ultra TR-FRET), wildtype
Sequence of EGFR wildtype (WT) (P00533 25-1210): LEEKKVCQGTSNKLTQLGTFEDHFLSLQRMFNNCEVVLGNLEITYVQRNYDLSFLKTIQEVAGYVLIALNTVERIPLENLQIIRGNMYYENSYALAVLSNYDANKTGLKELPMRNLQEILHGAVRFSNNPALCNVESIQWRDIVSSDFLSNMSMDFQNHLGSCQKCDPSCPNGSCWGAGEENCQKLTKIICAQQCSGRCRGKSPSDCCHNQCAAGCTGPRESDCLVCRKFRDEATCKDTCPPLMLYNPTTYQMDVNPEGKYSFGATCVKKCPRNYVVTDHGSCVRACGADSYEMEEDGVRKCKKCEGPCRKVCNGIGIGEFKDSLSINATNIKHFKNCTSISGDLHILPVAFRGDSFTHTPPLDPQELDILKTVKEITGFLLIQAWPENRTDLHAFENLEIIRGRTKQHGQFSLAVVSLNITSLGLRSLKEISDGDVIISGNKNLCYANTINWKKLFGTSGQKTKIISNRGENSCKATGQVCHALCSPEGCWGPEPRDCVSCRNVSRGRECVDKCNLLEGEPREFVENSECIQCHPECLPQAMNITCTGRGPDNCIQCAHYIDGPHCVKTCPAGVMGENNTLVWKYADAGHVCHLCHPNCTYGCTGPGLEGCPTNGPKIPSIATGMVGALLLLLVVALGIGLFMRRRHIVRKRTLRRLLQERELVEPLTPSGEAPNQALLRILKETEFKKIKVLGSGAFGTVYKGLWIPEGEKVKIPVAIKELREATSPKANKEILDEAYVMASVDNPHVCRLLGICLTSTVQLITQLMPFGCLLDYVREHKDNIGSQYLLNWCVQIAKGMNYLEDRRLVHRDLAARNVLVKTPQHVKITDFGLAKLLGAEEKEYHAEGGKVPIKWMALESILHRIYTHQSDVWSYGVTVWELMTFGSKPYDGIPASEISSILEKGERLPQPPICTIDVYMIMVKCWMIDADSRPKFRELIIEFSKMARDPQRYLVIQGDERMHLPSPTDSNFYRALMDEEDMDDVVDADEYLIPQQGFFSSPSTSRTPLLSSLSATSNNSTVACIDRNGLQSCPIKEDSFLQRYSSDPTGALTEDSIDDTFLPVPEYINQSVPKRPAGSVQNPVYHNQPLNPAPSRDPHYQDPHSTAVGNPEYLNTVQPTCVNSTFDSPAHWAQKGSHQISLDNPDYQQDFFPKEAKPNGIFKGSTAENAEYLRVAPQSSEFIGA
Experimental: as §1, §2

[3] = target: EGFR del19/T790M/C797S (Homo sapiens, UniProt P00533, C797S/DEL746-750/T790M); assay: Biochemical EGFR kinase assay (Lance Ultra TR-FRET), triple mutant del19/T790M/C797S
Sequence of EGFR del19/T790M/C797S (P00533 with tags, fused parts or gaps DEL746-750/T790M/C797S): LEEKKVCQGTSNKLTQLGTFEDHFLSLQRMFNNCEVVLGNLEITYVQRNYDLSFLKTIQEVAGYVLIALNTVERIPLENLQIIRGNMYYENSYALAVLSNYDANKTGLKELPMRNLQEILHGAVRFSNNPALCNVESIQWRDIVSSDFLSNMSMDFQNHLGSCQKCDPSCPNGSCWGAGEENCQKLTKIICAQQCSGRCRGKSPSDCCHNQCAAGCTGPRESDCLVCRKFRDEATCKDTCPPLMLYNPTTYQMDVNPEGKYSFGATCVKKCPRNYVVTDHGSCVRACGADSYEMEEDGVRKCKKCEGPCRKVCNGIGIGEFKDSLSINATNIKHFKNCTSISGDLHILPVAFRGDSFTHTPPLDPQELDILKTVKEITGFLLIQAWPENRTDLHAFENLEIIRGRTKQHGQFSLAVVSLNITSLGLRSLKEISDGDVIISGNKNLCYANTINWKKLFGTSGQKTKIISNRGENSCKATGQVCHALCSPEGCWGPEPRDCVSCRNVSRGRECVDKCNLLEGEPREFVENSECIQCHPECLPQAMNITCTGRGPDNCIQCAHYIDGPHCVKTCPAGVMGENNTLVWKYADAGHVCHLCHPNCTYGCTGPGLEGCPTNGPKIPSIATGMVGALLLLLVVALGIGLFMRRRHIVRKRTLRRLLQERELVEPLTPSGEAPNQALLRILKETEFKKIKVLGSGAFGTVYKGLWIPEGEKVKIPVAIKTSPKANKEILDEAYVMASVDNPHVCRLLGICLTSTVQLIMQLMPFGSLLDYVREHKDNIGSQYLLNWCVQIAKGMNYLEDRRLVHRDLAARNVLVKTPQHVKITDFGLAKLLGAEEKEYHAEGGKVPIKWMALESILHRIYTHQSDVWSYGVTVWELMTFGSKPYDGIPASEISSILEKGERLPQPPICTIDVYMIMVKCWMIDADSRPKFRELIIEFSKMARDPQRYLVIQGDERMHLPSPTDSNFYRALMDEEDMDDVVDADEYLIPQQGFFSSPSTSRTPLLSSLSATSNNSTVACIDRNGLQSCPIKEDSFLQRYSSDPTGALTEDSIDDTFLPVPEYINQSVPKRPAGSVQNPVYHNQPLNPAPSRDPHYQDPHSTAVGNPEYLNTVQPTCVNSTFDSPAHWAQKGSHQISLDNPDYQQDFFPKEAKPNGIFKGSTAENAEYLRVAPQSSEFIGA
Experimental: as §1, §2

[4] = target: EGFR L858R/C797S (Homo sapiens, UniProt P00533, C797S/L858R); assay: Biochemical EGFR kinase assay (Lance Ultra TR-FRET), double mutant L858R/C797S
Sequence of EGFR L858R/C797S (P00533 25-1210 C797S/L858R): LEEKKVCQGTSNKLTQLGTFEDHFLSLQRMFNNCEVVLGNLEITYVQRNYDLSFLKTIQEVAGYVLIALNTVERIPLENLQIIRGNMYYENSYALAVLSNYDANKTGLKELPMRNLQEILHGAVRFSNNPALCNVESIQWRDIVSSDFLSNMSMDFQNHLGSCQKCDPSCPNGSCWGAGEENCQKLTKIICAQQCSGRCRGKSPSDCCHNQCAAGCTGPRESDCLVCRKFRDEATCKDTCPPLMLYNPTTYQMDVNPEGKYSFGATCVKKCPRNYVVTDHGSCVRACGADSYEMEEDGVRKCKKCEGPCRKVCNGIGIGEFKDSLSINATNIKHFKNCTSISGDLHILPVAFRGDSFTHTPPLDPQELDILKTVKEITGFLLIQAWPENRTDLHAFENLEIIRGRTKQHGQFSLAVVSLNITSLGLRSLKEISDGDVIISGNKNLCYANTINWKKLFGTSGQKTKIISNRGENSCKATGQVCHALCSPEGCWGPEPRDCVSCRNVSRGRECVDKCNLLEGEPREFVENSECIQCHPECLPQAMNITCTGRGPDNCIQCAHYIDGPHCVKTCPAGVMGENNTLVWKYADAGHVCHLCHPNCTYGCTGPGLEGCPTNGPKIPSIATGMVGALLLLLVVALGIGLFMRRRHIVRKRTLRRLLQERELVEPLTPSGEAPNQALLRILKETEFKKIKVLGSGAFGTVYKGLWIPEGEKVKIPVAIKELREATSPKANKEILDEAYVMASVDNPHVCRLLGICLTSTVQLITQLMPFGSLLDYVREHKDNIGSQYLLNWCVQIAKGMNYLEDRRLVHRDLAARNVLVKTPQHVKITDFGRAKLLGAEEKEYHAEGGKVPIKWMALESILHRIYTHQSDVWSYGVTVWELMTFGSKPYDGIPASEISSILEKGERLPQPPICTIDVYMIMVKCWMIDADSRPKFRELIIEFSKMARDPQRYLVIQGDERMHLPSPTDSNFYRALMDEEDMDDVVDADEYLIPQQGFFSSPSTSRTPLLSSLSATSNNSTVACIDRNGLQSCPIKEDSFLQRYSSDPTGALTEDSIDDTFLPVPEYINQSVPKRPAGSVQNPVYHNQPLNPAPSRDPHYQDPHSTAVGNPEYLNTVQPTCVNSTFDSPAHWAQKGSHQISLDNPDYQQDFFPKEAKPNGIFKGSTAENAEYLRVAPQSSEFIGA
Experimental: as §1, §2

[5] = target: EGFR del19/C797S (Homo sapiens, UniProt P00533, C797S/DEL746-750); assay: Biochemical EGFR kinase assay (Lance Ultra TR-FRET), double mutant del19/C797S; conditions: Km ATP; read-out: IC50 del19/C797S (nM) Km ATP
Experimental: as §1, §2

[6] = IC50 L858R/T790M/C797S (nM) 100 μM ATP, 100 μM ATP
[7] = Km ATP, read-out: IC50 L858R/T790M/C797S (nM) Km ATP
[8] = IC50 WT (nM) 100 μM ATP, 100 μM ATP
[9] = Km ATP, read-out: IC50 WT (nM) Km ATP
[10] = IC50 del19/T790M/C797S (nM) 100 μM ATP, 100 μM ATP
[11] = Km ATP, read-out: IC50 del19/T790M/C797S (nM) Km ATP
[12] = IC50 L858R/C797S (nM) 100 μM ATP, 100 μM ATP
[13] = Km ATP, read-out: IC50 L858R/C797S (nM) Km ATP

Sequence of EGFR L858R/T790M/C797S (P00533 25-1210 T790M/C797S/L858R): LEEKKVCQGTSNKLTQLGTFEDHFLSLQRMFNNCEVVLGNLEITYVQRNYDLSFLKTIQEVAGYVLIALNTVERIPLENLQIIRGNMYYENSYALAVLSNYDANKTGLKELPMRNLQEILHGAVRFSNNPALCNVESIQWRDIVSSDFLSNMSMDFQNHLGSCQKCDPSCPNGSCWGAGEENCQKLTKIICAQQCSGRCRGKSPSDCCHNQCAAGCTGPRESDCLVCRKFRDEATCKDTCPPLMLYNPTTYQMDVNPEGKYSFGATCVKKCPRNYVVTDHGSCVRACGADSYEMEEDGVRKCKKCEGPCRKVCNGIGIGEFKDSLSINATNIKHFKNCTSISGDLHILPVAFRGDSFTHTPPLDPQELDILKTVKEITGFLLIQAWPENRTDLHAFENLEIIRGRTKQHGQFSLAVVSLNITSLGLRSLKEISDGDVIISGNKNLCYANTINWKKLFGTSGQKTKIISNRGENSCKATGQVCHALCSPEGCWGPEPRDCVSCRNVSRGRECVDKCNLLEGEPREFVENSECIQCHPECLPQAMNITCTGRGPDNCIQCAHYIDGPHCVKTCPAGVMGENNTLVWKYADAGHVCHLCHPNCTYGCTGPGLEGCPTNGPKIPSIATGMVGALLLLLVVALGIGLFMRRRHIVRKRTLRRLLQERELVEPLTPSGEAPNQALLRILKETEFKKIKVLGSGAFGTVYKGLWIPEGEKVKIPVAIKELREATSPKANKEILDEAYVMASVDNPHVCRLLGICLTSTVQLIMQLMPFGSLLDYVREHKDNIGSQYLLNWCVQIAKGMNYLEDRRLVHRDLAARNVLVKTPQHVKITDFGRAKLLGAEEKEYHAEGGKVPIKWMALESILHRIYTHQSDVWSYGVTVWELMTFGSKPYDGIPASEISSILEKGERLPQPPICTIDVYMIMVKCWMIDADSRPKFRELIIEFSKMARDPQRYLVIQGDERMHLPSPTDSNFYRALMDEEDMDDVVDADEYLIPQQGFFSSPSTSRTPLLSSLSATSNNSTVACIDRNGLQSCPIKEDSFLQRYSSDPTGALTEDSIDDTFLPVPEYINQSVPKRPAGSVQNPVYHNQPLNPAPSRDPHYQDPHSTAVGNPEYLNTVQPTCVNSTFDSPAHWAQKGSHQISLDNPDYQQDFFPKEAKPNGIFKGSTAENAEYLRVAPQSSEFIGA

| IC50 [1, 6] [nM] | IC50 [1, 7] [nM] | IC50 [2, 8] [nM] | IC50 [2, 9] [nM] | IC50 [3, 10] [nM] | IC50 [3, 11] [nM] | IC50 [4, 12] [nM] | IC50 [4, 13] [nM] | IC50 [5] [nM] | SMILES |
| --- | --- | --- | --- | --- | --- | --- | --- | --- | --- |
| 2.8 | 1.4 | 2070 | 9 | 5.1 | 2.5 | 26.7 |  |  | CN(C)C(=O)C[C@H]1CC[C@@H](Nc2cc(Nc3ccnc(-c4cnn(S(=O)(=O)C5CC5)c4)n3)ncc2-c2cc(C(F)(F)F)n(C)n2)CC1 [Example 258, 2-((1s,4s)-4-((2-((2-(1-(Cyclopropylsulfonyl)-1H-pyrazol-4-yl)pyrimidin-4-yl)amino)-5-(1-methyl-5-(trifluoromethyl)-1H-pyrazol-3-yl)pyridin-4-yl)amino)cyclohexyl)-N,N-dimethylacetamide] |
|  | 0.8 |  | 214 |  | 3.2 |  | 75.9 |  | Cn1cc(-c2cnc(Nc3ccnc(-c4cnn(S(=O)(=O)C5CC5)c4)n3)cc2C#CC(C)(C)O)cn1 [Example 4, 4-(2-((2-(1-(Cyclopropylsulfonyl)-1H-pyrazol-4-yl)pyrimidin-4-yl)amino)-5-(1-methyl-1H-pyrazol-4-yl)pyridin-4-yl)-2-methylbut-3-yn-2-ol] |
|  |  | > 10000 |  | 2.4 |  | 7 |  |  | C[C@]1(O)CC[C@@H](Nc2cc(Nc3ccnc(-c4cnn(S(=O)(=O)C5CC5)c4)n3)ncc2-c2csc(C(F)(F)F)n2)CC1 [Example 51, (1s,4s)-4-((2-((2-(1-(Cyclopropylsulfonyl)-1H-pyrazol-4-yl)pyrimidin-4-yl)amino)-5-(2-(trifluoromethyl)thiazol-4-yl)pyridin-4-yl)amino)-1-methylcyclohexan-1-ol] |
| 0.5 | 0.3 | 2000 | 4.8 | 0.6 | 0.6 | 2.9 | 0.6 |  | CC(C)(O)[C@H]1CC[C@@H](Nc2cc(Nc3ccnc(-c4cnn(S(=O)(=O)C5CC5)c4)n3)ncc2-c2ccn(C3COC3)n2)CC1 [Example 283, 2-((1s,4s)-4-((2-((2-(1-(Cyclopropylsulfonyl)-1H-pyrazol-4-yl)pyrimidin-4-yl)amino)-5-(1-(oxetan-3-yl)-1H-pyrazol-3-yl)pyridin-4-yl)amino)cyclohexyl)propan-2-ol] |
| 1 | 0.3 | 5120 | 15.3 | 0.7 | 0.8 | 200 | 10.5 |  | CN(C)CC1(C)CCC(Nc2cc(Nc3ccnc(-c4cnn(S(=O)(=O)C5CC5)c4)n3)ncc2-c2ccn(C(F)F)n2)CC1 (stereo not shown) [Example 207, N^2-(2-(1-(Cyclopropylsulfonyl)-1H-pyrazol-4-yl)pyrimidin-4-yl)-5-(1-(difluoromethyl)-1H-pyrazol-3-yl)-N^4-(4-((dimethylamino)methyl)-4-methylcyclohexyl)pyridine-2,4-diamine] |
| 0.4 | 0.3 | 1420 | 9 | 0.6 |  | 8.5 |  |  | C[C@]1(O)CC[C@@H](Nc2cc(Nc3ccnc(-c4cnn(S(=O)(=O)C5CC5)c4)n3)ncc2-c2nc(C(F)F)cs2)CC1 [Example 122, (1s,4s)-4-((2-((2-(1-(Cyclopropylsulfonyl)-1H-pyrazol-4-yl)pyrimidin-4-yl)amino)-5-(4-(difluoromethyl)thiazol-2-yl)pyridin-4-yl)amino)-1-methylcyclohexan-1-ol] |
| 1.9 | 0.6 | 7830 |  | 1.4 | 0.9 | 11.3 | 1 |  | Cn1ccc(-c2cnc(Nc3ccnc(-c4cnn(S(=O)(=O)C5CC5)c4)n3)cc2N[C@H]2CC[C@@H](C(C)(C)O)CC2)n1 [Example 42, 2-((1s,4s)-4-((2-((2-(1-(Cyclopropylsulfonyl)-1H-pyrazol-4-yl)pyrimidin-4-yl)amino)-5-(1-methyl-1H-pyrazol-3-yl)pyridin-4-yl)amino)cyclohexyl)propan-2-ol] |
|  |  |  |  |  | 31.3 |  |  | 371 | Cn1cc(C#Cc2cc(Nc3ccnc(-c4cnn(S(=O)(=O)C5CC5)c4)n3)ncc2-c2cnn(C(F)F)c2)cn1 [Example 2, 2-(1-(Cyclopropylsulfonyl)-1H-pyrazol-4-yl)-N-(5-(1-(difluoromethyl)-1H-pyrazol-4-yl)-4-((1-methyl-1H-pyrazol-4-yl)ethynyl)pyridin-2-yl)pyrimidin-4-amine] |
|  | 0.2 |  | 4.2 |  | 0.6 |  | 1 |  | CC1(O)CCC(Nc2cc(Nc3ccnc(-c4cnn(S(=O)(=O)C5CCOC5)c4)n3)ncc2-c2ccn(C(F)F)n2)CC1 (stereo not shown) [Example 114, (1s,4s)-4-((5-(1-(Difluoromethyl)-1H-pyrazol-3-yl)-2-((2-(1-((tetrahydrofuran-3-yl)sulfonyl)-1H-pyrazol-4-yl)pyrimidin-4-yl)amino)pyridin-4-yl)amino)-1-methylcyclohexan-1-ol] |
|  | 0.1 |  | 3.4 |  | 0.3 |  | 9.3 |  | C[C@]1(O)CC[C@@H](Nc2cc(Nc3ccnc(-c4cnn(S(=O)(=O)C5CC5)c4)n3)ncc2-n2ccc(C(F)F)n2)CC1 [Example 172, (1s,4s)-4-((2-((2-(1-(Cyclopropylsulfonyl)-1H-pyrazol-4-yl)pyrimidin-4-yl)amino)-5-(3-(difluoromethyl)-1H-pyrazol-1-yl)pyridin-4-yl)amino)-1-methylcyclohexan-1-ol] |
| 1 |  | > 10000 |  | 0.6 |  | 6.7 |  |  | CC(C)n1ccc(-c2cnc(Nc3ccnc(-c4cnn(S(=O)(=O)C5CC5)c4)n3)cc2N[C@H]2CC[C@@](C)(O)CC2)n1 [Example 84, (1s,4s)-4-((2-((2-(1-(Cyclopropylsulfonyl)-1H-pyrazol-4-yl)pyrimidin-4-yl)amino)-5-(1-isopropyl-1H-pyrazol-3-yl)pyridin-4-yl)amino)-1-methylcyclohexan-1-ol] |
|  | 1.3 |  | 20.2 |  | 1.9 |  |  |  | C[C@]1(O)CC[C@@H](Nc2cc(Nc3ccnc(-c4cnn(S(=O)(=O)C5CCCC5)c4)n3)ncc2-c2ccn(C(F)F)n2)CC1 [Example 115, (1s,4s)-4-((2-((2-(1-(Cyclopentylsulfonyl)-1H-pyrazol-4-yl)pyrimidin-4-yl)amino)-5-(1-(difluoromethyl)-1H-pyrazol-3-yl)pyridin-4-yl)amino)-1-methylcyclohexan-1-ol] |
| 1.4 | 0.4 | 8920 | 12.8 | 1.7 | 1.2 | 19.8 | 2.4 |  | CN1CCN(c2nc(-c3cnc(Nc4ccnc(-c5cnn(S(=O)(=O)C6CC6)c5)n4)cc3N[C@H]3CC[C@@](C)(O)CC3)cs2)CC1 [Example 121, (1s,4s)-4-((2-((2-(1-(Cyclopropylsulfonyl)-1H-pyrazol-4-yl)pyrimidin-4-yl)amino)-5-(2-(4-methylpiperazin-1-yl)thiazol-4-yl)pyridin-4-yl)amino)-1-methylcyclohexan-1-ol] |
|  | 0.6 |  | 3.8 |  | 0.7 |  | 0.3 |  | C[C@]1(O)CC[C@@H](Nc2cc(Nc3ccnc(-c4cnn(S(=O)(=O)C5CC5)c4)n3)ncc2-c2ccn(CCC(F)(F)F)n2)CC1 [Example 295, (1s,4s)-4-((2-((2-(1-(Cyclopropylsulfonyl)-1H-pyrazol-4-yl)pyrimidin-4-yl)amino)-5-(1-(3,3,3-trifluoropropyl)-1H-pyrazol-3-yl)pyridin-4-yl)amino)-1-methylcyclohexan-1-ol] |
| 1.1 | 0.2 | > 10000 | 65.3 | 0.4 | 0.5 | 41.3 | 2.9 |  | CC1(O)CCC(Oc2cc(Nc3ccnc(-c4cnn(S(=O)(=O)C5CC5)c4)n3)ncc2-c2cnn(C(F)F)c2)CC1 (stereo not shown) [Example 73, 4-((2-((2-(1-(Cyclopropylsulfonyl)-1H-pyrazol-4-yl)pyrimidin-4-yl)amino)-5-(1-(difluoromethyl)-1H-pyrazol-4-yl)pyridin-4-yl)oxy)-1-methylcyclohexan-1-ol] |
|  |  |  | 20.9 |  |  |  |  | 7.5 | Cn1nc(-c2cnc(Nc3ccnc(-c4cnn(S(=O)(=O)C5CC5)c4)n3)cc2N[C@H]2CC[C@@](C)(O)CC2)cc1N1CCC(F)(F)CC1 [Example 307, (1s,4s)-4-((2-((2-(1-(Cyclopropylsulfonyl)-1H-pyrazol-4-yl)pyrimidin-4-yl)amino)-5-(5-(4,4-difluoropiperidin-1-yl)-1-methyl-1H-pyrazol-3-yl)pyridin-4-yl)amino)-1-methylcyclohexan-1-ol] |
